Test results as given in the kinase profiling compilation of Christmann-Franck et al. (2016).

Columns and labels:
Assay in all cases: radiometric filter-binding kinase assay, Kinase HotSpot
Conditions in all cases: compound 0.5 µM; ATP 10 µM
AKT3 (human) = AKT3 (human) (UniProt Q9Y243)
AURKC (human) = AURKC (human) (UniProt Q9UQB9)
AXL (human) = AXL (human) (UniProt P30530)
BRSK2 (human) = BRSK2 (human) (UniProt Q8IWQ3)
CAMK1 (human) = CAMK1 (human) (UniProt Q14012)
CAMK1G (human) = CAMK1G (human) (UniProt Q96NX5)
CAMK2B (human) = CAMK2B (human) (UniProt Q13554)
CAMK2D (human) = CAMK2D (human) (UniProt Q13557)
CDK1 CCNB1 (human) = CDK1 CCNB1 (human) (UniProt P06493+P14635)
CDK5 CDK5R1 p35 (human) = CDK5 CDK5R1 p35 (human) (UniProt Q00535+Q15078)
CDK6 CCND1 (human) = CDK6 CCND1 (human) (UniProt Q00534+P24385)
CDK9 CCNK (human) = CDK9 CCNK (human) (UniProt O75909+P50750)
CSK (human) = CSK (human) (UniProt P41240)
CSNK2A2 (human) = CSNK2A2 (human) (UniProt P19784)
DAPK1 (human) = DAPK1 (human) (UniProt P53355)
DYRK2 (human) = DYRK2 (human) (UniProt Q92630)
EPHA4 (human) = EPHA4 (human) (UniProt P54764)
FES (human) = FES (human) (UniProt P07332)
IRAK4 (human) = IRAK4 (human) (UniProt Q9NWZ3)
LTK (human) = LTK (human) (UniProt P29376)
MAP3K5 (human) = MAP3K5 (human) (UniProt Q99683)
Chain of MAP3K5 (human) (Q99683 whole entry, looked up): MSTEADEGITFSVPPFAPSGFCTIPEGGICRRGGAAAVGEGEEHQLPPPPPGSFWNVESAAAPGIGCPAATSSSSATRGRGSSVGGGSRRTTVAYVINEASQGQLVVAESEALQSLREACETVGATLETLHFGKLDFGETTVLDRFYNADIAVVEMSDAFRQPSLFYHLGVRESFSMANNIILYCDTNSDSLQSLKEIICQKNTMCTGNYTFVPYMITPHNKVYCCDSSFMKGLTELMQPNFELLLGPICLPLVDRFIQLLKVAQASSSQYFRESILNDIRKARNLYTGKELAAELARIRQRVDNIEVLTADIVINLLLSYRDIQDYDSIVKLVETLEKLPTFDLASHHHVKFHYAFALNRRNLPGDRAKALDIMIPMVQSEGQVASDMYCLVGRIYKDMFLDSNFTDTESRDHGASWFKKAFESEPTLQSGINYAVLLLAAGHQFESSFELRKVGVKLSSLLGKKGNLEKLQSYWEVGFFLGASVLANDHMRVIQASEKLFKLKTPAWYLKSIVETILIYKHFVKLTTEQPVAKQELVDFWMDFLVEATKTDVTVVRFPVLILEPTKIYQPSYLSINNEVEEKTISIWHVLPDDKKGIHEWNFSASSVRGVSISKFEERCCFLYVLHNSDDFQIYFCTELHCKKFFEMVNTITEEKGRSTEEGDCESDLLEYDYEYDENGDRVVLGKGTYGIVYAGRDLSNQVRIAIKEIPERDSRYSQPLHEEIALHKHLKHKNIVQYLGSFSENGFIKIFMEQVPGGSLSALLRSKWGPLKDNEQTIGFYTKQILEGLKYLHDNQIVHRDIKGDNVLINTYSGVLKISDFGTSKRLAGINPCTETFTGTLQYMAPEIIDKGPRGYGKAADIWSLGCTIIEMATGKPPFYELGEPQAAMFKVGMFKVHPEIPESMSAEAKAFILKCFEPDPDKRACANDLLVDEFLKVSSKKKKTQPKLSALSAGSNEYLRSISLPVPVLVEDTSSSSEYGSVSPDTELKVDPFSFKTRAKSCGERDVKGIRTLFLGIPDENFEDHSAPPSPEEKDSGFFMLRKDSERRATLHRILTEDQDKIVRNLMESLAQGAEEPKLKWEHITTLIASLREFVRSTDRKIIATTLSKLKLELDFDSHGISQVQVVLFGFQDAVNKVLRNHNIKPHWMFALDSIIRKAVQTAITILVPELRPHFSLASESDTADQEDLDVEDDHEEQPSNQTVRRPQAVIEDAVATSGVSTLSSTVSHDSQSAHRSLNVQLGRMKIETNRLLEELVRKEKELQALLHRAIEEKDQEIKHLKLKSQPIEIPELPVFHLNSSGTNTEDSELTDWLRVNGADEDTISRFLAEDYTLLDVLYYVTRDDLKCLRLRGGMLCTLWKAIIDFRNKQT

MAP3K7 TAB1 (human) = MAP3K7 TAB1 (human) (UniProt O43318+Q15750)
MAP3K9 (human) = MAP3K9 (human) (UniProt P80192)
MAP4K4 (human) = MAP4K4 (human) (UniProt O95819)
MAPK1 (human) = MAPK1 (human) (UniProt P28482)
Chain of MAPK1 (human) (P28482 whole entry, looked up): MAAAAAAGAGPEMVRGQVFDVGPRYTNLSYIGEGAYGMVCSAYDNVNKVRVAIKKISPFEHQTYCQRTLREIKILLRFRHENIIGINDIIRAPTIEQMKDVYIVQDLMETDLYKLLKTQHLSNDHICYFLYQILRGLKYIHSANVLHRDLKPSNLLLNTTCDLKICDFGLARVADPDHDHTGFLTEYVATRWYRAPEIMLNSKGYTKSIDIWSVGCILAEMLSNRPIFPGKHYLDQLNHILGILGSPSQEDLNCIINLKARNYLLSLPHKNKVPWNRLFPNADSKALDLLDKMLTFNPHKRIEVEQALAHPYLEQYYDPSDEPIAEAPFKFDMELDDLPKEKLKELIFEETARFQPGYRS

MAPK3 (human) = MAPK3 (human) (UniProt P27361)
PHKG1 (human) = PHKG1 (human) (UniProt Q16816)
PIM2 (human) = PIM2 (human) (UniProt Q9P1W9)
Chain of PIM2 (human) (Q9P1W9 whole entry, looked up): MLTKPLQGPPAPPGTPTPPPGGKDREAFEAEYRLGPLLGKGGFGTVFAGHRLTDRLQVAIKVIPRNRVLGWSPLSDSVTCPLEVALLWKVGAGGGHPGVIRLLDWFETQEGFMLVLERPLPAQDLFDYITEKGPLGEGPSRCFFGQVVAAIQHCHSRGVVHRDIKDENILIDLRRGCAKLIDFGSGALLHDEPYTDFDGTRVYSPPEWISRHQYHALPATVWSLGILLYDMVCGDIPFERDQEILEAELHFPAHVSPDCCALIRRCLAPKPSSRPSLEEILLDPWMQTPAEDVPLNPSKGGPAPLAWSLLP

PKN1 (human) = PKN1 (human) (UniProt Q16512)
Chain of PKN1 (human) (Q16512 whole entry, looked up): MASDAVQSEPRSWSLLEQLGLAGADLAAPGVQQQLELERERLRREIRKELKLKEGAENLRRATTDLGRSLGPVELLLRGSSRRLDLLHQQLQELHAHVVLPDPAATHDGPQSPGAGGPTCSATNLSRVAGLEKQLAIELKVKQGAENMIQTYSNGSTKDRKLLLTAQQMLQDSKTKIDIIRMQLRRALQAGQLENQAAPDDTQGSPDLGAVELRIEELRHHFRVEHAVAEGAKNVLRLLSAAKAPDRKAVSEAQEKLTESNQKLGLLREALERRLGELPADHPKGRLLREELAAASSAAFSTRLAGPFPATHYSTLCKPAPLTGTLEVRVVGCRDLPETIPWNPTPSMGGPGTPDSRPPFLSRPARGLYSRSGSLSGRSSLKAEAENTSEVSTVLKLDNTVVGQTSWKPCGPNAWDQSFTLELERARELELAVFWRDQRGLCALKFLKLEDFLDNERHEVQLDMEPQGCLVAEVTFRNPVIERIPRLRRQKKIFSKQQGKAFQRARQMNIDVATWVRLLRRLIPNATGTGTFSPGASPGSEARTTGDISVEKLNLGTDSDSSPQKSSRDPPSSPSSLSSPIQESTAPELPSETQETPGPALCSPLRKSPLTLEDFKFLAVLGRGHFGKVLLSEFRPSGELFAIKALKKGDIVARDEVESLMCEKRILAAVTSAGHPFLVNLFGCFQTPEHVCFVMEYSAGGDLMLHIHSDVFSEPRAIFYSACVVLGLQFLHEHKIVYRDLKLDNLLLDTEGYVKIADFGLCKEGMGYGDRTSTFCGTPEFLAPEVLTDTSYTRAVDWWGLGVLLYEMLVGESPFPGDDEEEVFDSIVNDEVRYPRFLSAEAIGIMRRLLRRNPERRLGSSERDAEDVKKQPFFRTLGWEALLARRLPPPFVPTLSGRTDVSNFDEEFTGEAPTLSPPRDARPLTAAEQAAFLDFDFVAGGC

PRKCZ (human) = PRKCZ (human) (UniProt Q05513)
PTK2 (human) = PTK2 (human) (UniProt Q05397)
RAF1 (human) = RAF1 (human) (UniProt P04049)
Chain of RAF1 (human) (P04049 whole entry, looked up): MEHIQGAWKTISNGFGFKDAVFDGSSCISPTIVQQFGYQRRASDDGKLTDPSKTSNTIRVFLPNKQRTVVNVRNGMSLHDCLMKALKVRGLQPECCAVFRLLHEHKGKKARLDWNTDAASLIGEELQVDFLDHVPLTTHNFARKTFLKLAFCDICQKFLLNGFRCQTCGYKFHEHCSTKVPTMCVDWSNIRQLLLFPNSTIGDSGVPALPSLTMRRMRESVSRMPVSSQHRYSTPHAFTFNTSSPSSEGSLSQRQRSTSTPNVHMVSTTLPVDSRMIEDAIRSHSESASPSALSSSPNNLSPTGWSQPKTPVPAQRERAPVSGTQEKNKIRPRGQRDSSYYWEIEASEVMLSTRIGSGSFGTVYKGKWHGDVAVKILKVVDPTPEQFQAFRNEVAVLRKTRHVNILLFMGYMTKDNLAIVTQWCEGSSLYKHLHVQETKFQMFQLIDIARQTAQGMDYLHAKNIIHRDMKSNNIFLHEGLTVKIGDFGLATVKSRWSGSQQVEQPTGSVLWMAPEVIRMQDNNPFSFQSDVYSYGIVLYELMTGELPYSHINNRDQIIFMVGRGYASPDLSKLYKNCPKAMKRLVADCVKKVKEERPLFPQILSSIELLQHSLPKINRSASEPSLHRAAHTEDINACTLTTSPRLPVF

RIPK2 (human) = RIPK2 (human) (UniProt O43353)
Chain of RIPK2 (human) (O43353 whole entry, looked up): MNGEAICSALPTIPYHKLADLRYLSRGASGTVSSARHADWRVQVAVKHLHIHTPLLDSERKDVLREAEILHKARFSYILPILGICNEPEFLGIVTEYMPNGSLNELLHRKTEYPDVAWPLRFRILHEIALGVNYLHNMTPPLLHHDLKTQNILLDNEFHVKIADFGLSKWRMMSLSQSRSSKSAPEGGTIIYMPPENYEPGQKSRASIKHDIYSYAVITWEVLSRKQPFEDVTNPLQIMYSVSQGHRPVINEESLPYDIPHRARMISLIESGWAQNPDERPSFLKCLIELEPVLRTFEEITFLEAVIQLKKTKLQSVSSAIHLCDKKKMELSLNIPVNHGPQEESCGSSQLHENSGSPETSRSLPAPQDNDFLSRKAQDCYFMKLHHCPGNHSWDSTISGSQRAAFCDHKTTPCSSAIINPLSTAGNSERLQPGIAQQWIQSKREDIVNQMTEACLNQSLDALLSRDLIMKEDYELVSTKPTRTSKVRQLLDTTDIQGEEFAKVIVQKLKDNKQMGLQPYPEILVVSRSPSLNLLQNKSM

RPS6KA2 KD1 KD2 (human) = RPS6KA2 KD1 KD2 (human) (UniProt Q15349)
RPS6KB1 (human) = RPS6KB1 (human) (UniProt P23443)
STK17A (human) = STK17A (human) (UniProt Q9UEE5)
STK33 (human) = STK33 (human) (UniProt Q9BYT3)
STK4 (human) = STK4 (human) (UniProt Q13043)
Chain of STK4 (human) (Q13043 whole entry, looked up): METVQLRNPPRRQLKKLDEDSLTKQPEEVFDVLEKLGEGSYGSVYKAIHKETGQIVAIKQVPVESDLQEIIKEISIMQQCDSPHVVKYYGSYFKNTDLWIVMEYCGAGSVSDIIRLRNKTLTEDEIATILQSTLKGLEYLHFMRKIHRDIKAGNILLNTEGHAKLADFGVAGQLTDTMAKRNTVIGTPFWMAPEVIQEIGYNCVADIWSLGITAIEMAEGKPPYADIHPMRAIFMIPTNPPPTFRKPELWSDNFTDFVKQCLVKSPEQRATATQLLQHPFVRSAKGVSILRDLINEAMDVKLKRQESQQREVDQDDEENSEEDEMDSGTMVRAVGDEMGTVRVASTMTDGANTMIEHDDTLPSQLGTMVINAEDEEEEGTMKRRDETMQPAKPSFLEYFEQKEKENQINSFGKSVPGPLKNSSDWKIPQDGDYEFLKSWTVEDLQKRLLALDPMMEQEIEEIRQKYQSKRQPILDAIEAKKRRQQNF

TEK (human) = TEK (human) (UniProt Q02763)
TGFBR1 (human) = TGFBR1 (human) (UniProt P36897)
TXK (human) = TXK (human) (UniProt P42681)

Chain of CAMK1 (human) (Q14012 whole entry, looked up): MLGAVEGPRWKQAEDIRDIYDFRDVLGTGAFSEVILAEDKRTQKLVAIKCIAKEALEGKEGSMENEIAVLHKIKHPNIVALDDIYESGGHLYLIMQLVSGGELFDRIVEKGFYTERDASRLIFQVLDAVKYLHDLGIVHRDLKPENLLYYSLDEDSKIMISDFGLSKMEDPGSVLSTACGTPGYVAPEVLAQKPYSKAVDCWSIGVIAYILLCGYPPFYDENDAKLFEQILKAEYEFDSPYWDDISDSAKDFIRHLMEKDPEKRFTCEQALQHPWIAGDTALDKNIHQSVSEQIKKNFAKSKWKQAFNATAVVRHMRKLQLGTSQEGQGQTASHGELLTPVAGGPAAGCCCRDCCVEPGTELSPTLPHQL

## FC(F)(F)c1ccc(/C=C/c2nc(COc3ccc(CCCCn4ccnn4)cc3)co2)cc1
AKT3 (human)
  residual activity: 96.3%
AURKC (human)
  residual activity: 97.1%
AXL (human)
  residual activity: 101%
BRSK2 (human)
  residual activity: 99.6%
CAMK1 (human)
  residual activity: 105%
CAMK1G (human)
  residual activity: 95%
CAMK2B (human)
  residual activity: 99.3%
CAMK2D (human)
  residual activity: 109%
CDK1 CCNB1 (human)
  residual activity: 93.8%
CDK5 CDK5R1 p35 (human)
  residual activity: 99.4%
CDK6 CCND1 (human)
  residual activity: 95.4%
CDK9 CCNK (human)
  residual activity: 105%
CSK (human)
  residual activity: 106%
CSNK2A2 (human)
  residual activity: 102%
DAPK1 (human)
  residual activity: 91.3%
DYRK2 (human)
  residual activity: 110%
EPHA4 (human)
  residual activity: 98.8%
FES (human)
  residual activity: 102%
IRAK4 (human)
  residual activity: 97.7%
LTK (human)
  residual activity: 104%
MAP3K5 (human)
  residual activity: 97.2%
MAP3K7 TAB1 (human)
  residual activity: 88.7%
MAP3K9 (human)
  residual activity: 105%
MAP4K4 (human)
  residual activity: 95.1%
MAPK1 (human)
  residual activity: 88.6%
MAPK3 (human)
  residual activity: 100%
PHKG1 (human)
  residual activity: 92.9%
PIM2 (human)
  residual activity: 116%
PKN1 (human)
  residual activity: 97%
PRKCZ (human)
  residual activity: 101%
PTK2 (human)
  residual activity: 101%
RAF1 (human)
  residual activity: 97.1%
RIPK2 (human)
  residual activity: 109%
RPS6KA2 KD1 KD2 (human)
  residual activity: 96.8%
RPS6KB1 (human)
  residual activity: 105%
STK17A (human)
  residual activity: 103%
STK33 (human)
  residual activity: 93.7%
STK4 (human)
  residual activity: 97.5%
TEK (human)
  residual activity: 95.8%
TGFBR1 (human)
  residual activity: 98.8%
TXK (human)
  residual activity: 101%
